# Assay results taken from US11572590B2, “Methods for evaluating tumor cell spheroids using 3D microfluidic cell culture device” (Dana-Farber Cancer Institute, Inc., priority 2017, dated 2023).
# Where two headings read alike, the source gives them in different places.
# Experiments:
# Assay in all cases: SelectScreen Kinase Profiling, single point inhibition and IC50 for off-target kinases
# Assay type in all cases: biochemical
# off-target kinases [1] = target: off-target kinases (Homo sapiens, UniProt P19525); conditions: EIF2AK2 (PKR), LanthaScreen Binding
# Chain of off-target kinases (Homo sapiens, UniProt P19525) (P19525 whole entry): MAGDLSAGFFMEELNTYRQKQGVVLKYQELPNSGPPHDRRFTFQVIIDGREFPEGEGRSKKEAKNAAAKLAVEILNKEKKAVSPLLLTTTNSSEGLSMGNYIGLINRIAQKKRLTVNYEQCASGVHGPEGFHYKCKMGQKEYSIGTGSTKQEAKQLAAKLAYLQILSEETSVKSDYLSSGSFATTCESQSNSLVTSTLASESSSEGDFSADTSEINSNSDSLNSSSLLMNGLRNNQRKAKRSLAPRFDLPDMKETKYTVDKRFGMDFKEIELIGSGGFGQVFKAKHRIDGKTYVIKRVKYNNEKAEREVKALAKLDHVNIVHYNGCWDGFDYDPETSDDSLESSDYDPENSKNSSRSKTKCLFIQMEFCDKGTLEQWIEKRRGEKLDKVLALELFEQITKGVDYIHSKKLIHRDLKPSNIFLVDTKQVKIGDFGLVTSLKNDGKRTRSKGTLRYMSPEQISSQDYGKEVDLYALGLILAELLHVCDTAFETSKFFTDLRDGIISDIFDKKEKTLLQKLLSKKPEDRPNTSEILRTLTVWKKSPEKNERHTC
# off-target kinases [2] = target: off-target kinases (Homo sapiens, UniProt P27037); conditions: ACVR2A, LanthaScreen Binding
# Chain of off-target kinases (Homo sapiens, UniProt P27037) (P27037 20-513): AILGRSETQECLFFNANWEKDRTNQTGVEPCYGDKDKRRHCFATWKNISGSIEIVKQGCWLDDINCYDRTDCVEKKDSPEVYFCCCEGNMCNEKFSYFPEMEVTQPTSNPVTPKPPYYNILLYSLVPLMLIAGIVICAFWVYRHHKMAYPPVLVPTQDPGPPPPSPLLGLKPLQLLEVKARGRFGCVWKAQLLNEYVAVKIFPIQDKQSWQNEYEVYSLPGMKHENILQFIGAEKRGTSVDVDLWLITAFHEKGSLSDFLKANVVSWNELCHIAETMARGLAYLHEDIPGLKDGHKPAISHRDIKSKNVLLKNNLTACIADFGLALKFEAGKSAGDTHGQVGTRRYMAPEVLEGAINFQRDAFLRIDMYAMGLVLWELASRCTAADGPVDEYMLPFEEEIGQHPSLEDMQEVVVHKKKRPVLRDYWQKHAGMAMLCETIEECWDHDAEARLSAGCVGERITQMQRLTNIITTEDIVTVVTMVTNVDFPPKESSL
# off-target kinases [3] = target: T1, off-target kinases (Homo sapiens, UniProt Q8TF76); conditions: GSG2 (Haspin); Cmpd1 1000 μM; ATP Km app; Adapta
# T1 sequence (Q8TF76 1-798): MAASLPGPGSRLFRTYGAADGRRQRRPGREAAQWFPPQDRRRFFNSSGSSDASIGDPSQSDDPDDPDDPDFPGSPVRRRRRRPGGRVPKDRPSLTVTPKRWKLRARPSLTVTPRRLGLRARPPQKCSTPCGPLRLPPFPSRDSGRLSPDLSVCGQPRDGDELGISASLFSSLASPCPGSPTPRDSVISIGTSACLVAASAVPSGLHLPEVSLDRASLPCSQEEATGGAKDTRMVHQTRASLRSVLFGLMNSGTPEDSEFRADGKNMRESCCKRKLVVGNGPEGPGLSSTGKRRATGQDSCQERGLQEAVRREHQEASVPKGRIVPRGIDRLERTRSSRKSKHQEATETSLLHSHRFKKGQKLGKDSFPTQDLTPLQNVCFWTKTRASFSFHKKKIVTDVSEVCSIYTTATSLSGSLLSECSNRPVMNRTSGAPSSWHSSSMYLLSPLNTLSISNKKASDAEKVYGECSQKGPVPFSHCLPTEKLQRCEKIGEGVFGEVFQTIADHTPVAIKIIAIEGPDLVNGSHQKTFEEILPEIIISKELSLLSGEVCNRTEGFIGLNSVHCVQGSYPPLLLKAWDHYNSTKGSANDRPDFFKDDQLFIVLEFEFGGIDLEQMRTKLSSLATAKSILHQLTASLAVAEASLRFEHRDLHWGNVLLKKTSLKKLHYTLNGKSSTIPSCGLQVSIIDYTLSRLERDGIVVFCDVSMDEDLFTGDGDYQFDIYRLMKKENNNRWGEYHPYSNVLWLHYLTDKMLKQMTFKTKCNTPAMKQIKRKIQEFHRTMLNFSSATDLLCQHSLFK
# off-target kinases [4] = target: T2, off-target kinases (Homo sapiens, UniProt Q32MK0); conditions: MLCK (MLCK2), LanthaScreen Binding
# T2 sequence (Q32MK0 1-819): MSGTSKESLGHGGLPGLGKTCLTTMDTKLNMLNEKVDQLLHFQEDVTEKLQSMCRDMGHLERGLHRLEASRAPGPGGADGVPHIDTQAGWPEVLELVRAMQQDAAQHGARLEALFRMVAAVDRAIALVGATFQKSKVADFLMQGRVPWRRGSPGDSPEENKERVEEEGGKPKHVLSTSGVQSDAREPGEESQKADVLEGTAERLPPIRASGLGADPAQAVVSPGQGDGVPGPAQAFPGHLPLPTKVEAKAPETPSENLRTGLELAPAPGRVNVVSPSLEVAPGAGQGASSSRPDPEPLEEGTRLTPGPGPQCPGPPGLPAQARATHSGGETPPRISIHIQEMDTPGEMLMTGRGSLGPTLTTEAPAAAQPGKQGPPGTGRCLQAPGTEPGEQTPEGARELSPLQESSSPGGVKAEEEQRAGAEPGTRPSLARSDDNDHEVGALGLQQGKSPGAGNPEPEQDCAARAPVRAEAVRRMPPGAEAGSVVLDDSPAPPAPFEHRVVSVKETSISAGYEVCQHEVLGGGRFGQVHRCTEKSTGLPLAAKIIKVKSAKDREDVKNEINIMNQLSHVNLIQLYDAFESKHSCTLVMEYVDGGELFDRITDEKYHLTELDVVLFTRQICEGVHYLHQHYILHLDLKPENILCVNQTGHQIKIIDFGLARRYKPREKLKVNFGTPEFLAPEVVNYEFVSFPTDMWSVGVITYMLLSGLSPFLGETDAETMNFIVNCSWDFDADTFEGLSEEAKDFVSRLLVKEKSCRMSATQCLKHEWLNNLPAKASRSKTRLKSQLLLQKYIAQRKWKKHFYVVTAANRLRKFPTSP
structure (smiles),measurement,setting,value
"N#Cc1cc(-c2ncnc(Nc3ccc(N4CCN(C5COC5)CC4)cc3)n2)ccc1OC1CCOCC1 [Compound 1, 5-(4-((4-(4-(oxetan-3-yl)piperazin-1-yl)phenyl)amino)-1,3,5-triazin-2-yl)-2-((tetrahydro-2H-pyran-4-yl)oxy)benzonitrile]",inhibition,off-target kinases [1]; read-out: % Inhibition 1,90%
same,inhibition,off-target kinases [1]; read-out: % Inhibition 2,89%
same,inhibition,off-target kinases [1]; read-out: % Inhibition Avg,89%
same,inhibition,off-target kinases [2]; read-out: % Inhibition 1,23%
same,inhibition,off-target kinases [2]; read-out: % Inhibition 2,21%
same,inhibition,off-target kinases [2]; read-out: % Inhibition Avg,22%
same,% Inhibition 1,off-target kinases [3],7%
same,% Inhibition 2,off-target kinases [3],−20%
same,% Inhibition Avg,off-target kinases [3],−6%
same,inhibition,off-target kinases [4]; read-out: % Inhibition 1,92%
same,inhibition,off-target kinases [4]; read-out: % Inhibition 2,93%
same,inhibition,off-target kinases [4]; read-out: % Inhibition Avg,93%
